{"source": "patent US11000540B1", "about": "“Treatment for reducing adverse events including chemotherapy discomfort and other conditions” (priority 2019, dated 2021)", "origin": "cited, not measured here", "data": [{"conditions": "buffer pair acid/conjugate base", "values": [{"molecule": "Tris(hydroxymethyl)aminomethane", "pKa of Acid (or pH of 1:1 mixture)": 8.2}, {"molecule": "NCC(=O)O", "note": "[Glycine/Glycine anion, Glycine]", "pKa of Acid (or pH of 1:1 mixture)": 9.60}, {"molecule": "Boric Acid [Boric Acid/Borate]", "pKa of Acid (or pH of 1:1 mixture)": 9.0}, {"molecule": "O=S(=O)(O)CCNC1CCCCC1", "note": "[N-Cyclohexy1-2-aminoethanesuifonic acid]", "pKa of Acid (or pH of 1:1 mixture)": 9.3}]}]}
